Laboratory results: publication PMC7937321 (Genes and Environment, 2021)

Tested on: TK6 cells
Experiment: Cytotoxicity in the TK6 assay (CE, RS, RSG, RTG)
Conditions: for RS: graph sheet, TK6, 24 h
[1] = TK6, 24 h treatment, -S9 mix, dose 200.0 μg/mL
[2] = TK6, 24 h treatment, -S9 mix, dose 220.0 μg/mL
[3] = short treatment, +S9 mix, Day 0, dose 62.5 μg/mL
[4] = short treatment, +S9 mix, Day 0, dose 250 μg/mL
[5] = short treatment, +S9 mix, Day 0, dose 500 μg/mL
[6] = short treatment, +S9 mix, Day 0, dose 1000 μg/mL
[7] = short treatment, +S9 mix, Day 0, dose 2000 μg/mL
[8] = short treatment, -S9 mix, Day 0, dose 62.50 μg/mL
[9] = short treatment, -S9 mix, Day 0, dose 500.0 μg/mL
[10] = short treatment, -S9 mix, Day 0, dose 1000.0 μg/mL
[11] = short treatment, -S9 mix, Day 0, dose 2000.0 μg/mL

O=[N+]([O-])c1cc(N(CCO)CCO)ccc1NCCO [HC blue no2]
RS0 [1]: 36.4%
RSG [1]: 0.241
Adjusted CE0 [2]: 48.2%
CE0 (cell viability on Day 0) [2]: 28.3%
CE3 (cell viability on Day 3) [2]: 101.2%
RS0 [2]: 18.1%
RSG [2]: 0.106
CE3 (as fraction, mutation frequency table, TK6, 24 h treatment, -S9 mix, dose 60.00 μg/mL): 1.160
CE3 (as fraction, mutation frequency table, TK6, 24 h treatment, -S9 mix, dose 90.00 μg/mL): 1.250
CE3 (as fraction, mutation frequency table, TK6, 24 h treatment, -S9 mix, dose 200.0 μg/mL): 1.120
CE3 (as fraction, mutation frequency table, TK6, 24 h treatment, -S9 mix, dose 220.0 μg/mL): 1.012
RS (-S9 mix, dose 60.00 μg/mL): 128.6
RS (-S9 mix, dose 90.00 μg/mL): 97.6
RS (-S9 mix, dose 200.0 μg/mL): 36.4
RS (-S9 mix, dose 220.0 μg/mL): 18.1
Adjusted CE0 [3]: 91.4%
CE0 [3]: 81.6%
RS0 [3]: 96.7%
Adjusted CE0 [4]: 89.0%
CE0 [4]: 74.8%
RS0 [4]: 94.2%
Adjusted CE0 [5]: 80.9%
CE0 [5]: 79.3%
RS0 [5]: 85.5%
Adjusted CE0 [6]: 69.1%
CE0 [6]: 59.6%
RS0 [6]: 73.1%
Adjusted CE0 [7]: 58.5%
CE0 [7]: 54.7%
RS0 [7]: 61.9%
CE3 (short treatment, +S9 mix, Day 3, dose 62.5 μg/mL): 92.1%
CE3 (short treatment, +S9 mix, Day 3, dose 250 μg/mL): 104.6%
CE3 (short treatment, +S9 mix, Day 3, dose 500 μg/mL): 92.1%
CE3 (short treatment, +S9 mix, Day 3, dose 1000 μg/mL): 108.2%
CE3 (short treatment, +S9 mix, Day 3, dose 2000 μg/mL): 104.6%
CE3 (short treatment, +S9 mix, as fraction, dose 62.5 μg/mL): 0.921
CE3 (short treatment, +S9 mix, as fraction, dose 250 μg/mL): 1.046
CE3 (short treatment, +S9 mix, as fraction, dose 500 μg/mL): 0.921
CE3 (short treatment, +S9 mix, as fraction, dose 1000 μg/mL): 1.082
CE3 (short treatment, +S9 mix, as fraction, dose 2000 μg/mL): 1.046
RSG (short treatment, +S9 mix, dose 62.5 μg/mL): 1.016
RSG (short treatment, +S9 mix, dose 250 μg/mL): 1.004
RSG (short treatment, +S9 mix, dose 500 μg/mL): 1.149
RSG (short treatment, +S9 mix, dose 1000 μg/mL): 0.770
RSG (short treatment, +S9 mix, dose 2000 μg/mL): 0.963
Adjusted CE0 [8]: 82.4%
CE0 [8]: 77.0%
RS0 [8]: 94.7%
Adjusted CE0 [9]: 97.6%
CE0 [9]: 92.1%
RS0 [9]: 112.2%
Adjusted CE0 [10]: 99.4%
CE0 [10]: 92.1%
RS0 [10]: 114.3%
Adjusted CE0 [11]: 93.9%
CE0 [11]: 92.1%
RS0 [11]: 107.9%
CE3 (short treatment, -S9 mix, Day 3, dose 62.50 μg/mL): 125.0%
CE3 (short treatment, -S9 mix, Day 3, dose 500.0 μg/mL): 95.0%
CE3 (short treatment, -S9 mix, Day 3, dose 1000.0 μg/mL): 108.2%
CE3 (short treatment, -S9 mix, Day 3, dose 2000.0 μg/mL): 89.3%
CE3 (short treatment, -S9 mix, as fraction, dose 62.50 μg/mL): 1.250
CE3 (short treatment, -S9 mix, as fraction, dose 500.0 μg/mL): 0.950
CE3 (short treatment, -S9 mix, as fraction, dose 1000.0 μg/mL): 1.082
CE3 (short treatment, -S9 mix, as fraction, dose 2000.0 μg/mL): 0.893
RSG (short treatment, -S9 mix, dose 62.50 μg/mL): 0.906
RSG (short treatment, -S9 mix, dose 500.0 μg/mL): 1.168
RSG (short treatment, -S9 mix, dose 1000.0 μg/mL): 0.743
RSG (short treatment, -S9 mix, dose 2000.0 μg/mL): 0.681
